Test results taken from PMC10066322 (Scientific Reports, 2023).
pIC50: −log10 of the molar value.

Tests used:
[1] = molecular target: T1, PARN (Homo sapiens, UniProt O95453); assay: High-throughput screening fluorescence assay with 8-point IC50 curves; assay type: biochemical; conditions: high-throughput screening hits; 8 points 1:3 dilution, top 100 µM
T1 construct: expression of the C-terminal truncated protein (1-430 aa of PARN) was soluble; His tag (from the pCold I vector); made in house; host or cells: E. coli Rosetta 2 DE
T1 sequence (O95453 1-430): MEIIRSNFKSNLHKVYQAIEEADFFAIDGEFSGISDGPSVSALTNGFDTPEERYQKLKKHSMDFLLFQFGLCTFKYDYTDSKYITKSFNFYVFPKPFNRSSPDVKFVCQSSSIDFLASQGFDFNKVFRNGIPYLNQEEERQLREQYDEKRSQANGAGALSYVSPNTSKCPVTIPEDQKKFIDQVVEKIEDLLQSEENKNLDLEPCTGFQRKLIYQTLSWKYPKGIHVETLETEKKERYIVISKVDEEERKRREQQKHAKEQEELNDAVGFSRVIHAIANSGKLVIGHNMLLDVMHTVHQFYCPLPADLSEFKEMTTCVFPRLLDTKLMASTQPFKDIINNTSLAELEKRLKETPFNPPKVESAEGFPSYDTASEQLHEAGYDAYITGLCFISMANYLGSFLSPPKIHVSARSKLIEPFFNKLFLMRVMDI
Method: To identify PARN inhibitors in a high-throughput manner, 24,000 compounds from the Enamine kinase library were tested in a HTS utilizing the fluorescence assay (Fig. 3a).
2 µL of protein (100 nM final concentration) (stock protein was diluted in 1× lysis buffer (HEPES KOH, pH 7.4, 30 mM, KOAc 100 mM, and Mg(OAc)2 2 mM) was added to wells using offline Multidrop Combi nL. The reaction was pre-incubated with 12.5 nL of Sygnature library (Enamine kinase library (HBL-24) (31.25 μM) for 15 min before 2 µL of RNA (10 µM) was added (DMSO was added to control wells using Echo 655). The reaction was incubated at 22 °C for 20 min in Cytomat automatic incubator. After the incubation, the reaction was quenched by adding 4 µL of quencher solution (30 µM of 3′-BHQ labeled quench DNA in 1% SDS) using Multidrop Combi nL. The quenched reaction was incubated at room temperature for 10 min and fluorescence was measured using PHERAstar FSX (λ485/520). For the counter screen, no protein was added to the reaction.
Curves were fitted within Genedata using SmartFit algorithm.

[2] = molecular target: T2, PARN1-430 (Homo sapiens, UniProt O95453); assay: Gel assay of poly(A) RNA shortening by PARN1-430; assay type: biochemical; conditions: 20 μM compound
T2 construct: expression of the C-terminal truncated protein (1-430 aa of PARN) was soluble; His tag (from the pCold I vector); made in house; host or cells: E. coli Rosetta 2 DE
T2 sequence (O95453 1-430): T1 sequence (O95453 1-430)
Method: PARN1-430 was incubated with a fluorescently labeled RNA with a CCUUUCC sequence followed by a 9 nucleotide-long poly(A) tail and the reaction product was visualized on denaturing acrylamide gels. We observed that PARN removed the 3′ oligo(A) tail from the RNA substrate (Fig. 2c and d). […] Moreover, we observed that PARN is inhibited when treated with adenosine monophosphate (AMP), as has been reported previously.
1 µL of protein (73 nM as final concentration) (stock protein is diluted in 1× lysis buffer (HEPES KOH, pH 7.4, 30 mM, KOAc 100 mM, and Mg(Oac)2 2 mM) was added to 4 µL of 2.5× reaction buffer (Tris–HCl pH 7.4, 10 mM, KCl 50 mM, MgCl2 5 mM). If drug was added, reaction was pre-incubated with drugs for 10 min before 5 µL of RNA (5 µM as final concentration) was added. The reaction was incubated at 37 °C for 20 min. After the incubation, the reaction was either diluted with 2× loading buffer and heated to 95 °C for 5 min for gel or quenched by adding 10 µL of quencher solution (30 µM of 3′-BHQ labeled quench DNA in 1% SDS). Quenched reaction was incubated at room temperature for 10–60 min and fluorescence was measured using Fluorescein wavelength measurement.
15% TBE-Urea gel (Thermo Fisher Scientific) was prerun at 20W for 30 min. RNAs from the reaction was loaded into 15% TBE gels and run at 300 V for 35 min. The gel was visualized using iBright (Invitrogen FL1500).

[3] = system: PARN activity in Hela cells; assay: miR-21-5p levels in Hela cells by northern blotting (PARN inhibition in cells); assay type: cell-based, human; conditions: 10 µM, 2 days
Method: 48 h after transfection/drug treatment, cells were collected for either RNA or protein analysis.
Total RNA was extracted from cell lysates using TriZol as per manufacturer’s protocol and DNAse treated. After quantification on Nanodrop, total RNA was separated on an acrylamide 7 M Urea gel. RNA was transferred to a nylon membrane (Nytran SPC, GE Healthcare) using semiwet transfer. After UV/EDC crosslinking, the blot was pre-hybridized and hybridized in PerfectHyb Plus Hybridization Buffer (Sigma Aldrich) at 42 °C. Northern probes have been previously described[11],[48]. After hybridization and washing in 2 × SSC 0.1% SDS wash buffer, blots were exposed to a cassette and imaged on a Typhoon FLA 9500 Phosphoimager. Band intensities were quantified using ImageJ and normalized to the U1 levels under each condition.

O=C(Nc1ncnc2c1ncn2[C@@H]1O[C@H](CO)C[C@H](F)[C@H]1O)c1ccccc1 [TH18]
pIC50 [1]: 6.70
inhibition of PARN on gels [2]: could inhibit PARN at 20 μM, except for TH18
PARN inhibitor in cells [3]: No
